The numbers were not newly measured in paper PMC12491383, “Organ and tumour dosimetry of ^177Lu-rhPSMA-10.1, a novel PSMA-targeted therapy: results from a Phase I trial” (European Journal of Nuclear Medicine and Molecular Imaging, 2025), which cites them from elsewhere.

Details of series [1]: method as in PMID 38050121. To be noted: cited from earlier work.
Details of series [2]: method as in PMID 34887335. As to conditions: reported data; cited from earlier work.

`O=C([O-])CN1CCN(CC(=O)[O-])CCN(CC(=O)NCC2CCC(C(=O)N[C@@H](Cc3ccc4ccccc4c3)C(=O)NCCCC[C@H](NC(=O)N[C@@H](CCC(=O)O)C(=O)O)C(=O)O)CC2)CCN(CC(=O)[O-])CC1.[177Lu+3]` (stereo partly shown) [^177Lu-PSMA-617, lutetium Lu 177 vipivotide tetraxetan]: the “Absorbed dose to the bone marrow” value in series [1] (VISION dosimetry substudy) is 0.035 Gy/GBq. Besides, in series [1] (VISION substudy), the “Absorbed dose in the salivary glands” value is on record as 0.63 Gy/GBq. Also, in series [1] (dosimetry substudy of the Phase III VISION trial), the “Absorbed dose in the kidneys” value is reported as 0.43 Gy/GBq. For the same compound, the Tumour effective half-life in series [2] is given as 61 h.
